SMILES strings stand for the structures.

For this test, the target named is T1, rabbit reticulocyte 15-LO (Oryctolagus cuniculus, UniProt P12530).
T1 construct: rabbit reticulocyte 15-LO; from tissue; host or cells: rabbit reticulocytes
T1 sequence (P12530 1-663): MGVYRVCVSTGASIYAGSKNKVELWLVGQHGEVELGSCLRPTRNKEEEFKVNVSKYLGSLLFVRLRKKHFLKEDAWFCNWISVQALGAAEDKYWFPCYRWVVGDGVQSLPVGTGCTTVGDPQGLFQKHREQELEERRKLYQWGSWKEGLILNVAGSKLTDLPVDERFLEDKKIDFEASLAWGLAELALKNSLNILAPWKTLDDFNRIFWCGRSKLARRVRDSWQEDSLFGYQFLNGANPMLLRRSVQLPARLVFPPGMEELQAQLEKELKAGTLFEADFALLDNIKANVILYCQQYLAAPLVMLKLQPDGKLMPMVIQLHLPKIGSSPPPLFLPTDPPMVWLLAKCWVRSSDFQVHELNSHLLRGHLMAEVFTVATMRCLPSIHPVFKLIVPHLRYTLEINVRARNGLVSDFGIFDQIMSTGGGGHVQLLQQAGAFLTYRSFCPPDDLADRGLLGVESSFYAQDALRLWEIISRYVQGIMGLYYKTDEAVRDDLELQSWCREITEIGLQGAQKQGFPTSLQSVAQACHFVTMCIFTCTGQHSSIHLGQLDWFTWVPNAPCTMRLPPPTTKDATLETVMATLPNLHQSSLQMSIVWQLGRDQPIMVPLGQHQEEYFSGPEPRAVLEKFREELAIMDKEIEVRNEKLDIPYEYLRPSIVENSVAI
Put plainly: HPLC Assay of 15-LO Inhibition. It is filed as biochemical. Conditions: HPLC method; linoleic acid substrate, 4° C., 10 minutes. Here is the method: The isothiazolones of Formula I are also effective for treating inflammation and atherosclerosis. A characteristic feature of atherosclerosis is the accumulation of cholesteryl ester engorged from foam cells. Foam cells are derived from circulating monocytes which invade artery walls in response to hypercholesterolemia, and mature into tissue macrophages. […] Specifically, representative compounds were evaluated by the methods described by Auerbach, et al., Analytical Biochemistry, 1992;201:375-380. Two in vitro assays were utilized, both utilizing rabbit reticulocyte 15-LO, and linoleic acid as substrate, to enzymatically produce a peroxide oxidation product known as 13(S)-HPODE. N-Benzoyl leucomethylene blue was utilized as a colorimetric reagent for detection and quantification of the peroxide formation. Also, HPLC was utilized to quantify the oxidation following incubation at 4° C. for 10 minutes.
Table 3 gives the concentration of compound required to inhibit 50% of the activity of 15-LO (IC50) when measured by the HPLC method of Auerbach, et al. Table 4 gives the percent inhibition of 15-LO activity when evaluated by the colorimetric method.
What is called IC50 is the concentration that gives 50% inhibition. `CN(C)c1ncc2c(=O)n(Cc3ccccn3)sc2n1` [Example 23, 6-(Dimethylamino)-2-(2-pyridinylmethyl)isothiazolo [5,4-d]pyrimidin-3-(2H)-one] had an IC50 of 400 nM.
Molecule `O=c1c2cnc(-c3ccccc3)nc2sn1Cc1ccccc1` [Example 24, 2-Benzyl-6-phenyl-isothiazolo[5,4-d]pyrimidin-3-one] showed an IC50 of 300 nM.
The same measure for `O=c1c2cnc(-c3ccccc3)nc2sn1CCN1CCOCC1` [Example 27, 2-(2-Morpholin-4-yl-ethyl)-6-phenyl-isothiazolo[5,4-d) pyrimidin-3-one]: 270 nM; for `O=c1c2cnc(-c3ccccc3)nc2sn1CCc1ccccc1` [Example 28, 2-Phenethyl-6-phenyl-isothiazolo[5,4-d]pyrimidin-3-one]: 760 nM.
In turn, `O=c1c2cnc(-c3ccccc3)nc2sn1Cc1ccccn1` [Example 29, 6-phenyl-2-pyridin-2-ylmethyl-isothiazolo[5,4-d] pyrimidin-3-one] had an IC50 of 390 nM.
Next, `O=c1c2cnc(-c3ccccc3)nc2sn1CCc1ccccn1` [Example 30, 6-phenyl-2-(2-pyridin-2-yl-ethyl)-isothiazolo[5,4-d] pyrimidin-3-one]: 290 nM; `O=c1c2cnc(N3CCCCC3)nc2sn1CCc1ccccn1` [Example 31, 6-Piperidin-1-yl-2-(2-pyridin-2-yl-ethyl)-isothiazolo [5,4-d]pyrimidin-3-one]: 1300 nM.
The molecule `O=c1[nH]sc2nc(N3CCCCC3)ncc12` [Example 32, 6-Piperidin-1-yl-isothiazolo[5,4-d]pyrimidin-3-one] displayed a 50% inhibitory concentration (IC50) of 3200 nM.
Next, `O=c1c2cnc(N3CCOCC3)nc2sn1CCN1CCCCC1` [Example 33, 6-Morpholin-4-yl-2-(2-piperidin-1-yl-ethyl)-isothiazolo [5,4-d]pyrimidin-3-one]: 120 nM.
The same measure for `CN(C)c1ncc2c(=O)n(CCc3ccccn3)sc2n1` [Example 34, 6-Dimethylamino-2-(2-pyridin-2-yl-ethyl)-isothiazolo [5,4-d]pyrimidin-3-one]: 1700 nM; for `CN(C)c1ncc2c(=O)n(CCN3CCCCC3)sc2n1` [Example 35, 6-Dimethylamino-2-(2-piperidin-1-yl-ethyl)-isothiazolo [5,4-d]pyrimidin-3-one]: 160 nM.

The record behind these values is patent US5620997A, “Isothiazolones” (Warner-Lambert Company, priority 1995, dated 1997).
